Assay results reported in patent US7056734B1, “Differentiation of non-insulin producing cells into insulin producing cells by GLP-1 or exendin-4 and uses thereof” (The United States of America as represented by the …, priority 1998, dated 2006).
Read-outs that look alike come from different tables or passages of the source.

Tests used:
pancreata = assay: Proliferation and differentiation of pancreatic cells after GLP-1 infusion or exendin-4 injection; assay type: in vivo, rat; details: for total number of insulin positive cells: GLP-1 continuous infusion or exendin-4 repeated ip injection for at least two days; for time of maximal differentiation effect: GLP-1 continuous infusion, exendin-4 daily bolus; for persistence of increased number of insulin producing cells after treatment is discontinued: rat, in vivo
Protocol: Exendin-4, in contrast, was administered intraperitoneally one time daily for five days according to the protocol of Example 2.

ERK = assay: MAP kinase (ERK) activity in AR42J cells; assay type: cell-based, rat; details: 3 days; for ERK (MAP kinase) activity: GLP-1 10 nM, exendin-4 0.1 nM
Protocol: MAP Kinase Activity. After treatment, 60 mm dishes of 80% confluent cells were lysed at 4° C. in lysis buffer (in mM): 50 TRIS-HCl, PH 8, 150 NaCl, 5 EDTA, 1% NP-40, 0.25% sodium deoxycholate, 1 NaF, 10 sodium pyrophosphate, 0.1 PMSF, 1 sodium orthovanadate, 20 μg/ml aprotinin, and 10 μg/ml leupeptin. The cell lysate was clarified by centrifugation at 16,000×g at 4° C. for 20 min. The clarified cell lysate was immunoprecipitated overnight at 4° C., rotating with 4.5 μg of ERK1-CT antibody and 40 μl of packed protein G+protein A agarose resin (Oncogene Research Product, Cambridge, Mass.). The immune pellet was assayed for MAPK activity using MBP as the substrate. MBP (18.6 μg) was phosphorylated at 20° C. for 10 min in a final volume of 60 μl containing 20 mM Hepes, PH 7.4, 10 mM MgCl2, 1 mM DTT, 20 uM unlabeled ATP and 40 μCi (3,000 Ci/mmol) [^32P]-ATP. The reaction was terminated by the addition of 25 μl of 3× Laemmli sample buffer and heating at 70° C. for 10 min. MAPK activity was assessed by SDS-PAGE and auto-radiography. The autoradiograms were quantified by densitometry.

Wistar rats = assay: Intravenous bolus of exendin-4 or GLP-1, plasma insulin in fasted anesthetized rats; assay type: in vivo, rat; details: for time by which insulin levels return to baseline: 0.4 nmol/kg iv bolus; for urine output during the study: iv bolus, not quantitated
Protocol: Protocols. Wistar rats were fasted overnight. Following anesthesia with 50 mg/kg pentobarbital, a catheter was placed in the femoral artery for blood sampling. A bolus of either exendin-4 or GLP-1 was given into the saphenous vein (iv) over 30 sec to 12 animals, while a bolus of normal saline (NaCl) was given to the other six. The order of the injections was rotated. Blood (taken at −5, 0, 2, 5, 15, 30, 60, 120, and 180 min) was drawn into heparinized tubes containing EDTA and aprotinin for insulin determination (See Example 1). Animals were acclimated to the facility for at least 2 days.
Assays. Plasma glucose was measured by the glucose oxidase method (Wang et al., 1997). Insulin was measured by RIA as previously described (See Example 1). Hb A1c was assayed using a BIO-RAD (Herculas Calif.) DiaSTAT machine which uses low pressure cation exchange chromatography in conjunction with gradient elution to separate hemoglobin subtypes and variants from hemolyzed blood. The separated hemoglobin fractions were monitored by means of absorption of light at 415 nm.
Statistical methods. All results are given as mean±SEM. T tests were based on the results of an F test that looked at the equality of variance of the two means. […] For determination of the EC50 the basal plasma insulin levels were subtracted and the remaining activity at each concentration was expressed as a percent of the maximal activity (achieved by an excess of peptide). This was then transformed into a logit format where logit=ln (% activity/[100-% activity]) and was plotted as a function of the log concentration of the compound.

AR42J cells [1] = assay: Intracellular cAMP in AR42J cells; assay type: cell-based, rat; details: 1 h; GLP-1 0.1 to 100 nM, IBMX 100 nM, CCK 0.1 to 100 nM, exendin-4 0.1 to 10 nM
Protocol: Measurement of cAMP. Cells were grown in 12-well dishes and treated with hormones and reagents±IBMX as described above. They were then washed 3 times in ice-cold PBS and lysed with 1 ml ice-cold […] perchloric acid. The lysates (950 μl) were transferred to microcentrifuge tubes and the pH adjusted to 7.0 using 5 M K2CO3. After centrifugation for 5 min at 10^4 rpm, the supernatant was vacuum dried, and then recovered in 200 μl Tris/EDTA buffer. After addition of 0.15 mM Na2CO3 (50 μl) and 0.15 mM ZnSO^4 (50 μl), followed by incubation for 15 min on ice, the salt precipitate was removed by centrifugation for 15 min at 3.5×10^3 rpm and 50 μl of supernatant was assayed using a cAMP [^3] assay kit (Amersham Corp., Arlington Heights, Ill.), (Steiner et al., 1972).

AR42J cells [2] = assay: Amylase release from AR42J cells; assay type: cell-based, rat
Protocol: Cell Culture. AR42J cells were maintained in Dulbecco's modified Eagle's medium (Gibco, Grand Island, N.Y.) (DMEM) supplemented with 10% Fetal Calf Serum, 100 IU/ml penicillin, 100 μg/ml streptomycin and 2 mM glutamine. Cells from passage 23–36 were used throughout this study.
Amylase Assay. For amylase secretion, cells were washed free of medium with 2 ml phosphate buffered saline (PBS). Incubation was then carried out in DMEM containing 15 mM HEPES, 0.2% bovine serum albumin (BSA) and 0.01% soybean trypsin inhibitor. The hormones and reagents of interest were added for 50 min at 37° C. The incubation medium was then immediately removed for amylase determination and the cells were again washed in 2 ml ice-cold PBS. […] The released amylase was expressed as the percentage of the total amylase activity of the cells.

| Compound | total number of insulin positive cells (pancreata) | time of maximal differentiation effect (pancreata) | persistence of increased number of insulin producing cells after treatment is discontinued (pancreata) | potency on ERK activation relative to GLP-1 (ERK) | ERK (MAP kinase) activity (ERK) | maximal insulin response compared with GLP-1 (Wistar rats; 0.4 nmol/kg iv) | time by which insulin levels return to baseline (Wistar rats) | urine output during the study (Wistar rats) | intracellular cAMP levels (AR42J cells [1]) | effect on amylase release when given alone (AR42J cells [2]) | earliest time at which differentiation effect was observed (pancreata; continuous infusion) | cells in treated pancreata positive for PCNA (pancreata; continuous infusion, five days) | effect on amylase release when given alone (AR42J cells [2]; 50 min, glucagon 10 or 100 nM, GLP-1 10 nM, insulin 100 nM, 8-Br-cAMP 100 nM, vanadate 1 mM) | effect on CCK-induced amylase release (AR42J cells [2]; combined with CCK (1 nM), genestein 300 μM, vanadate 1 mM) | basal or CCK (1 nM)-induced amylase release after pre-incubation (AR42J cells [2]; pre-incubation 8, 24, 48 or 72 h with GLP-1 (10 nM) and insulin (100 nM)) |
| --- | --- | --- | --- | --- | --- | --- | --- | --- | --- | --- | --- | --- | --- | --- | --- |
| exendin-4 | increase in total number of insulin positive cells | seven days | at least two weeks | about 100 fold | markedly increased | approximately doubled | ≤ 60 min | obvious increase in urine output | did not alter | did not appear to influence amylase release | – | – | – | – | – |
| CC[C@H](C)[C@H](NC(=O)[C@H](Cc1ccccc1)NC(=O)[C@H](CCC(=O)O)NC(=O)[C@H](CCCCN)NC(=O)[C@H](C)NC(=O)[C@H](C)NC(=O)[C@H](CCC(N)=O)NC(=O)CNC(=O)[C@H](CCC(=O)O)NC(=O)[C@H](CC(C)C)NC(=O)[C@H](Cc1ccc(O)cc1)NC(=O)[C@H](CO)NC(=O)[C@H](CO)NC(=O)[C@@H](NC(=O)[C@H](CC(=O)O)NC(=O)[C@H](CO)NC(=O)[C@@H](NC(=O)[C@H](Cc1ccccc1)NC(=O)[C@@H](NC(=O)CNC(=O)[C@H](CCC(=O)O)NC(=O)[C@H](C)NC(=O)[C@@H](N)Cc1c[nH]cn1)[C@@H](C)O)[C@@H](C)O)C(C)C)C(=O)N[C@@H](C)C(=O)N[C@@H](Cc1c[nH]c2ccccc12)C(=O)N[C@@H](CC(C)C)C(=O)N[C@H](C(=O)N[C@@H](CCCCN)C(=O)NCC(=O)N[C@@H](CCCNC(=N)N)C(N)=O)C(C)C [GLP-1] | increase in total number of insulin positive cells | seven days | at least two weeks | – | markedly increased | – | ≤ 10 min | urinated little if any | not altered | – | 1 days | Approximately 20% | did not influence amylase release | did not influence amylase release | did not increase |
